Test results taken from US6235707A, “Anticoagulant peptidyl-arginine aldehyde derivatives” (Gyogyszerkutato Intezet Kft., priority 1996, dated 2001).
pIC50: −log10 of the molar value.

Assays:
[1] = test system: New Zealand white rabbits; test: ex vivo whole blood clotting time (WBCT) in rabbits after p.o. dosing; set-up: species or system rabbit; conditions: p.o. 5 mg/kg
Procedure: The anticoagulant and platelet aggregation inhibiting effect of the compounds of general formula (I) was studied in New Zealand white rabbits ex vivo according to D. Bagdy et al. [Thromb. Haemost. 67, 357 (1992)]. The compounds were dissolved in buffered isotonic saline solution and administered i.v. (0,04-5.0 mg/kg) or by infusion (0.25-5.0 mg/kg/h) or subcutaneously (0.5-6.0 mg/kg) or p.o. (2.5-20 mg/kg). The effect of the compounds was detectable already within 30 minutes following p.o. administration, peak values were attained after 60-180 minutes and the therapeutic level was maintained dose-dependently for 3→6 hours.
The in vivo effect of ethoxycarbonyl-3-cyclobutyl-D-alanyl-L-prolyl-L-arginine aldehyde (1) is presented in detail in Tables 6 and 7. The corresponding values of C1 are listed as controls. The compound was administered p.o. in doses of 5 mg/kg. The blood samples drawn from the caudal vein in every 30-60 minutes were analysed. The whole blood clotting time (WBCT) and the inhibition of thrombin-induced blood platelet aggregation (PAI) were determined. The activated partial thromboplastin time (APTT) and the thrombin time (TT) in the citrate plasma obtained from the blood sample were also measured. The APTT and TT values are compiled in Table 6 and the WBCT and PAI values in Table 7.

clot-bound fXa = target: T1, clot-bound fXa (Homo sapiens, UniProt P00742); test: inhibition of plasma clot-bound factor Xa (Methods M1, M2); format: biochemical; conditions: text b187, well below
T1 construct: from tissue; host or cells: clot of recalcified human platelet-rich plasma
T1 sequence (P00742 235-488 limits assumed): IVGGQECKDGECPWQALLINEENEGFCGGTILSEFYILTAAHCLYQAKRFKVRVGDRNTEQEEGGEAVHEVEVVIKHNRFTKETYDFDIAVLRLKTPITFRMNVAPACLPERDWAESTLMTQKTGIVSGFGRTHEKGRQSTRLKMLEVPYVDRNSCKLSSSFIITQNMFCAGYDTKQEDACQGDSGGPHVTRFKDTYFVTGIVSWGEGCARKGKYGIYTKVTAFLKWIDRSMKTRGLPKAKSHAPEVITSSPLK
T1 sequence (P00742 41-179 partner limits assumed): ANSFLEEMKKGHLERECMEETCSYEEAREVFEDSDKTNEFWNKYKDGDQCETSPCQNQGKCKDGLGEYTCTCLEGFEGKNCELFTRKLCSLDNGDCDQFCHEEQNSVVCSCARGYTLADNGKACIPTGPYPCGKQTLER
Procedure: (§1) Plasma-clot was obtained by recalcificating platelet-rich human plasma, and fibrin gel by clotting human fibrinogen with human thrombin. For the activity measures of fXa and thrombin Z-D-Arg-Gly-Arg-pNA or Tos-Gly-Pro-Arg-pNA substrates were used in agreement with Methods M1-M3.
(§2) Preparation of Clots from Human Plasma
(§3) a) Platelet-rich plasma is prepared by centrifuging a 9:1 mixture of human blood and 3.8% sodium citrate solution for 5 min. at 240×g.
(§4) b) 200 μl platelet-rich plasma and 80 μl 40 mM CaCl2 solution are allowed to stand at room temperature for 1 hour. The thus-formed clot is washed with 6×2 ml of 0.9% NaCl solution with gentle stirring to remove the residual enzymes (thrombin and factor Xa). The washing medium is assayed for thrombin-like activity as follows:
c) To 400 μl of washing medium 100 μl of 1 mM Tos-Gly-Pro-Arg-pNA substrate solution is added, the mixture is incubated for 30 min at 37° C., then the reaction is stopped with 100 μl of 50% acetic acid. From this mixture 150 μl aliquots are applied onto a 96-well microtitre plate and the extinction coefficients are measured at 405 nm (ELISA READER SLT Laborinstrument GmbH, Austria). […]
c) From each reaction vessel 150 μl is applied onto a 96 well microtitre plate and extinction coefficients are measured at 405 nm (ELISA READER SLT Laborinstrument GmbH, Austria). […]

clot-bound thrombin = target: T2, clot-bound thrombin (Homo sapiens, UniProt P00734); test: inhibition of plasma clot-bound thrombin (Methods M1, M3); format: biochemical; conditions: clot from platelet-rich human plasma; Tos-Gly-Pro-Arg-pNA substrate
T2 construct: from tissue; host or cells: clot of recalcified human platelet-rich plasma
Procedure: as §1, §2, §3, §4
c) To 400 μl of washing medium 100 μl of 1 mM Tos-Gly-Pro-Arg-pNA substrate solution is added, the mixture is incubated for 30 min at 37° C., then the reaction is stopped with 100 μl of 50% acetic acid. From this mixture 150 μl aliquots are applied onto a 96-well microtitre plate and the extinction coefficients are measured at 405 nm (ELISA READER SLT Laborinstrument GmbH, Austria). In case of efficient washing the extinction coefficient is smaller than 5% of that of the control.
Determination of the Inhibition of Clot-bound Thrombin
a) Solutions are made from the peptide inhibitors according to Method M2/a.
b) After draining off the washing medium the clots (Method M1) are mixed with 400 μl of peptide solution (3 parallel samples with each concentration), then the samples are incubated for 5 min. at 37° C. together with a separate 400 μl buffer serving as control. Then 100 μl […] 1 mM Tos-Gly-Pro-Arg-pNA substrate solution is added and the incubation continued for further 30 min. at 37° C. The experiment is continued according to M2/c.

## CCOC(=O)N[C@H](CC1CCC1)C(=O)N1CCC[C@H]1C(=O)N[C@H](C=O)CCCNC(=N)N [Example 1, Ethoxycarbonyl-3-cyclobutyl-D-alanyl-L-prolyl-L-arginine aldehyde]
[1]; 0 min
  WBCT relative clotting time: 1.0
[1]; 30 min
  WBCT relative clotting time: 1.52 ± 0.22
[1]; 45 min
  WBCT relative clotting time: 1.58 ± 0.17
[1]; 60 min
  WBCT relative clotting time: 1.88 ± 0.45
[1]; 90 min
  WBCT relative clotting time: 1.73 ± 0.33
[1]; 120 min
  WBCT relative clotting time: 1.98 ± 0.30
[1]; 180 min
  WBCT relative clotting time: 1.43 ± 0.13
[1]; 240 min
  WBCT relative clotting time: 1.12 ± 0.24
[1]; 300 min
  WBCT relative clotting time: 1.18 ± 0.08
clot-bound fXa
  pIC50: > 6.00
clot-bound thrombin
  pIC50: 6.41
